T1: SPA1-Kin (Arabidopsis thaliana, UniProt Q9SYX2)
T1 sequence (Q9SYX2 1-545 limits assumed): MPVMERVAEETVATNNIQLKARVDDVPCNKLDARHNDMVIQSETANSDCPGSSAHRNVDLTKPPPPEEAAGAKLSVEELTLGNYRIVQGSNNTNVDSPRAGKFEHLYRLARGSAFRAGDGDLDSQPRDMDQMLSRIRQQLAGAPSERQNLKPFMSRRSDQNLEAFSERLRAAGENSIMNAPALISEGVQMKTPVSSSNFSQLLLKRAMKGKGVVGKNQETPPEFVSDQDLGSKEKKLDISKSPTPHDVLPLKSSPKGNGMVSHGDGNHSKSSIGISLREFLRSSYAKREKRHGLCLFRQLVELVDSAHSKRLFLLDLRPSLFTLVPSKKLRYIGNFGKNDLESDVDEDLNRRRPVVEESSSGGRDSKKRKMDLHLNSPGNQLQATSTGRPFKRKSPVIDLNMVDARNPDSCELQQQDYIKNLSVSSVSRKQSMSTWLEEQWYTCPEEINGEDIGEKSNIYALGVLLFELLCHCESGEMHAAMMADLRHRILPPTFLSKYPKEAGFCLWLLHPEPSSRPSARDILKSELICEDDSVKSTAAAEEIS

T2: phyA (Arabidopsis thaliana, UniProt P14712)
T2 construct: holoprotein purified from Saccharomyces cerevisiae
T2 sequence (P14712 1-1122): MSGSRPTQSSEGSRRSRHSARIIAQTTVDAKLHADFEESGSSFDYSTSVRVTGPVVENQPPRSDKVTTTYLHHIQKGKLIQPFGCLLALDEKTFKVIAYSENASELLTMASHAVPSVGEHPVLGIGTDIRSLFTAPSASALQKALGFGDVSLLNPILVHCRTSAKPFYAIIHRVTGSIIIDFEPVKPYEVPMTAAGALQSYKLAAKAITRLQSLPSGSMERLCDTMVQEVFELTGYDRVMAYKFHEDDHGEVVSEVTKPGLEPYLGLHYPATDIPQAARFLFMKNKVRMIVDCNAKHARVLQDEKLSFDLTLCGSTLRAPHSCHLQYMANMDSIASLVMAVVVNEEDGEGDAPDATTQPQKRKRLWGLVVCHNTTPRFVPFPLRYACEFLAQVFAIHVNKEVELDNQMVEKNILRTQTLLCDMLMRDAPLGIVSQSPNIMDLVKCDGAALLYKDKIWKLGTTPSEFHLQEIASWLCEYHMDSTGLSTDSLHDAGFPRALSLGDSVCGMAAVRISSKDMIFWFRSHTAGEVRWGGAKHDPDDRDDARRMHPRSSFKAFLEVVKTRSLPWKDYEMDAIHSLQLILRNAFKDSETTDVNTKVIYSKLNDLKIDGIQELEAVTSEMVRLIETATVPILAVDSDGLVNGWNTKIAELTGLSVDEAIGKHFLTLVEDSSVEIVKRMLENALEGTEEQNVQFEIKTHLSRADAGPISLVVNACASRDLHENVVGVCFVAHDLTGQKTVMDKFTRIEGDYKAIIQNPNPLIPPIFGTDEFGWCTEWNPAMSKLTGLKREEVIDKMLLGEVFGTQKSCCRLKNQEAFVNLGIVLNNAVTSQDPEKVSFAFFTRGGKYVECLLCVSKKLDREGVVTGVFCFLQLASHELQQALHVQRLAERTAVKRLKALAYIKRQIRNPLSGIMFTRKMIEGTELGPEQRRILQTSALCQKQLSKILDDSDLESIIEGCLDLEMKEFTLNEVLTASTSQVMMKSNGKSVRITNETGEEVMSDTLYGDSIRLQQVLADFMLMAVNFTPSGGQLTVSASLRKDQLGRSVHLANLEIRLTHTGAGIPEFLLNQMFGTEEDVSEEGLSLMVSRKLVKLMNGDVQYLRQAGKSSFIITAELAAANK

T3: Arabidopsis phytochrome B holoprotein purified from Pichia pastoris (Arabidopsis, UniProt P14713 1-1172, phycocyanobilin chromophore assembled)
T3 construct: phytochrome B (phyB), Arabidopsis; also called phyB; Pfr form of phyB; source: Pichia pastoris GS115, purified (ammonium sulfate, Strep-Tactin Sepharose)
T3 sequence (looked up): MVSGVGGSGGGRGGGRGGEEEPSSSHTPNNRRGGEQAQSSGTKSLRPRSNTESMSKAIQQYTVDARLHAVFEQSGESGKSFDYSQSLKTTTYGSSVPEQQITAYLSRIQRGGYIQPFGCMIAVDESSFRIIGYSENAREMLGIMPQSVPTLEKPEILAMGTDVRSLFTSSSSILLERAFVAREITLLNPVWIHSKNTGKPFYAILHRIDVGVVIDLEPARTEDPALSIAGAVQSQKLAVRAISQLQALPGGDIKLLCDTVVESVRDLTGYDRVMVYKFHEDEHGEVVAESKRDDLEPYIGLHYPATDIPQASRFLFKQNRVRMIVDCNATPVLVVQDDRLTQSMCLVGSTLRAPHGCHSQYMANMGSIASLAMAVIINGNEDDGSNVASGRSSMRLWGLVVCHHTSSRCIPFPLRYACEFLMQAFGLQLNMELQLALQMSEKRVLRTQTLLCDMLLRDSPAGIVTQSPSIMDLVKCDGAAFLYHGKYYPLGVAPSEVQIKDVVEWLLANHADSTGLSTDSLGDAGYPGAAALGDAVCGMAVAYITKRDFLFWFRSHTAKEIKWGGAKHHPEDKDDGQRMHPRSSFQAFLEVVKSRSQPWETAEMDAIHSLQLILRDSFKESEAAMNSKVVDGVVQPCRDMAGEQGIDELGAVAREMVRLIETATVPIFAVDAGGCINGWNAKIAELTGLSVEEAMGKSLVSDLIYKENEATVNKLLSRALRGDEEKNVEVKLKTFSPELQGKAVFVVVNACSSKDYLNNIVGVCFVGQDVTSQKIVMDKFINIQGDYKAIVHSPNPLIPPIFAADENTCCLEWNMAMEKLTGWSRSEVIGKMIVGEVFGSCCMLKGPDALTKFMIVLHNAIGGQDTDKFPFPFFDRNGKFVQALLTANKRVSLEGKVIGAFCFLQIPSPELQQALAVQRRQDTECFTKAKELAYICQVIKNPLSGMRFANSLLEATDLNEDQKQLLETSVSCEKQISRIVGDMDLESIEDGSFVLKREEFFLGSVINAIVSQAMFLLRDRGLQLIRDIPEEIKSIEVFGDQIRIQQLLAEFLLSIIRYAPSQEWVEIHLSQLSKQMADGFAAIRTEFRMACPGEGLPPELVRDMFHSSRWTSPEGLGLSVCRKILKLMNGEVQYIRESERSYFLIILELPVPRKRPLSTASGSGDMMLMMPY


Tests used:
[1] = molecular target: T1, SPA1-Kin; test: in vitro autophosphorylation assay, autoradiogram; type: biochemical; conditions: 10 mM MgCl2, pH 7.5, 28 °C; labelled compound (gamma-32P)
[2] = molecular target: T2, phyA; test: in vitro kinase assay, autoradiogram; type: biochemical; conditions: PIF1 as co-substrate, 10 mM MgCl2, pH 7.5, 28 °C; labelled compound (gamma-32P)
[3] = molecular target: T3, Arabidopsis phytochrome B holoprotein …; test: pull-down; tripartite complex: 2 µg GST-PIF1-strep on GST agarose beads, 1-2 µg purified phyB from Pichia pastoris, with E. coli lysate holding MBP-SPA1; anti-strep blot; conditions: both partners purified

| Molecule | in vitro autophosphorylation assay, autoradiogram [1] | in vitro kinase assay, autoradiogram [2] | binding result [3] |
| --- | --- | --- | --- |
| Nc1ncnc2c1ncn2[C@@H]1O[C@H](COP(=O)(O)OP(=O)(O)OP(=O)(O)O)[C@@H](O)[C@H]1O [ATP] | The purified SPA1-Kin domain displayed autophosphorylation activity in a protein concentration-dependent manner | In this assay, both phyA and phyB phosphorylated PIF1 in vitro | – |
| GST-PIF1-strep (natural protein, Arabidopsis, UniProt Q8GZM7 1-478, looked up, source: E. coli BL21(DE3), purified (Strep-Tactin Sepharose); not shown: GST, N-terminal, kept; Strep tag, C-terminal, kept) MHHFVPDFDTDDDYVNNHNSSLNHLPRKSITTMGEDDDLMELLWQNGQVVVQNQRLHTKKPSSSPPKLLPSMDPQQQPSSDQNLFIQEDEMTSWLHYPLRDDDFCSDLLFSAAPTATATATVSQVTAARPPVSSTNESRPPVRNFMNFSRLRGDFNNGRGGESGPLLSKAVVRESTQVSPSATPSAAASESGLTRRTDGTDSSAVAGGGAYNRKGKAVAMTAPAIEITGTSSSVVSKSEIEPEKTNVDDRKRKEREATTTDETESRSEETKQARVSTTSTKRSRAAEVHNLSERKRRDRINERMKALQELIPRCNKSDKASMLDEAIEYMKSLQLQIQMMSMGCGMMPMMYPGMQQYMPHMAMGMGMNQPIPPPSFMPFPNMLAAQRPLPTQTHMAGSGPQYPVHASDPSRVFVPNQQYDPTSGQPQYPAGYTDPYQQFRGLHPTQPPQFQNQATSYPSSSRVSSSKESEDHGNHTTG | – | – | binds |
